Values quoted from earlier work, collected in patent US20070009938A1, “Minimalist bZIP derivatives that bind to noncanonical gene regulatory sequences” (priority 2005, published 2007).

Experiments:
[1] = system: CRE (ATF/CREB) site; settings: previously shown, Lajmi et al. 2000
[2] = system: AP-1 site; settings: previously shown, Lajmi et al. 2000

Row | Substance | binding to CRE (ATF/CREB) site, DNase I footprinting [1] | binding to AP-1 site, DNase I footprinting [2]
1 | 11A: alanine-rich derivative of wt bZIP with eleven Ala substitutions in the basic region, also mutated in the hinge (SEQ ID NO:4) (ARAAAARARNTAAARRSRAAKAAAAAA; basic region 11A bZIP mutant peptide) | bind | bind
2 | 18A: alanine-rich derivative of wt bZIP; 24 of the 27 basic-region residues are alanine (SEQ ID NO:5) (AAAAAAAAANAAAAAAARAAKAAAAAA; basic region 18A bZIP mutant peptide) | bind | bind
3 | 4A: alanine-rich derivative of wt bZIP with four Ala substitutions in the GCN4 basic region (SEQ ID NO:3) (ARAAAARARNTAAARRSRARKLQRMKQ; basic region 4A bZIP mutant peptide) | bind | bind
